Assay results published in US20070020183A1, “Perfluoroalkyl-containing complexes, process for their production as well as their use” (priority 2005, published 2007).

What was measured:
[1] = system: inflammatory muscle lesions and necrotic areas; assay: MRT visualization of inflammatory lesions and necrotic areas in rats; format: in vivo; details: i.v. 50 μmol of Gd/kg, T1-weighted turbo-spin-echo 1.5 T
Procedure: By way of example, the pictures of FIG. 3 show MR images of inflammatory muscle lesions as well as necrotic areas at different points in time after intravenous administration of 50 μmol of Gd/kg of body weight of gadolinium complex XIV (title substance of Example 4g) in rats. The inflammation/necrosis was induced by intravenous administration of Rose Bengal (20 mg/kg; 24 hours before the administration of contrast medium) and subsequent 20-minute irradiation with a xenon lamp.

[2] = in vivo; cited from earlier work

| Molecule | MR signal in the central necrosis ([1]; 24 hours p.i.) | MR signal in inflammatorily altered tissue ([1]; up to 60 minutes p.i.) | LD50 [2] |
| --- | --- | --- | --- |
| CC(C(=O)NCC(=O)NCCCC[C@H](NC(=O)CO[C@H]1O[C@H](CO)[C@@H](O)[C@H](O)[C@@H]1O)C(=O)NCCCC(F)(F)C(F)(F)C(F)(F)C(F)(F)C(F)(F)C(F)(F)C(F)(C(F)(F)F)C(F)(F)F)N1CCN(CC(=O)[O-])CCN(CC(=O)[O-])CCN(CC(=O)[O-])CC1.[Gd+3] (stereo partly drawn) [Gadolinium complex XIV, Gadolinium complex of 6-N-[1,4,7-tris-(carboxylatomethyl)-1,4,7,10-tetraazacyclododecane-10-N-(pentanoyl-3-aza-4-oxo-5-methyl-5-yl)]-2-N-(1-O-α-d-carbonylmethylmannopyranose)-L-lysine-[(1H,1H,2H,2H-perfluoro-9-methyldecyl)-methyl]-amide] | delayed signal rise | strong signal rise | – |
| Mn-TPPS | – | – | approximately 0.5 mmol/kg |
